Assay results taken from article PMC7237762, “Total Synthesis and Biological Evaluation of Kakeromamide A and Its Analogues” (Frontiers in Chemistry, 2020).

Experiments:
neurons = assay: Cell cytotoxicity toward neurons (Hoechst 33342 staining); format: cell-based; conditions: 2.5, 5 and 10 μM, n = 3
Text: (§1) Bioactive compounds modulating proliferation and differentiation of neural stem cells are required as chemical probes to study about mechanism of neural development or lead compounds for regenerative medicine. In order to evaluate neural differentiation-modulating activities of kakeromamide A and its analogs, we elected to perform the biological tests using the same procedure that we reported in the isolation paper (Nakamura et al., [2018]). Neural stem cells were obtained following the procedure (Nakayama and Inoue, [2006]; Iwata et al., [2016]) with modification. 2.5, 5, and 10 μM of kakeromamide A or its respective derivative was added to astrocytes or neurons. The cell cytotoxicity of kakeromamide A and its analogs toward astrocytes or neurons was carried out using Hoechst 33342 staining (Figure 7).
(§2) Figure 7 Cytotoxicity of Kakeromamide A and Its Analogs. (A) Percentages of cell numbers calculated by Hoechst 33342 positive cells, compared to that of control, in evaluating effects of kakeromamide A and its analogs for astrocytes (n = 3, means ± S.D., *p < 0.05). (B) Percentages of cell numbers calculated by Hoechst 33342 positive cells, compared to that of control, in evaluating effects of kakeromamide A and its analogs for neurons (n = 3, means ± S.D., *p < 0.05).

Hela cells = conditions: preliminary biological tests of the isolated natural product; ref Nakamura et al., 2018; read-out: cytotoxicity IC50 against Hela cells; cited from earlier work
Text: (§3) Marine cyanobacteria have been playing a pivotal role in producing structurally diversified and biologically intriguing peptides (Luesch et al., [2001]; Guzman-Martinez et al., [2007]; Zainuddin et al., [2007]). In 2018, we reported the isolation of a novel cyclopeptide, kakeromamide A (Figure 1), from the marine cyanobacterium Moorea bouillonii collected near Japan (Nakamura et al., [2018]). […] To the best of our knowledge, this is the first example of marine cyclopeptide t ...

neural stem cells (NSCs) [1] = conditions: isolated natural product; ref Nakamura et al., 2018; cited from earlier work
Text: as §3

neural stem cells (NSCs) [2] = assay: NSC differentiation assay, astrocytic differentiation (GFAP immunostaining); format: cell-based; conditions: 2.5, 5 and 10 μM; 72 hours in differentiation medium; anti-GFAP immunostaining, Hoechst 33342 nuclei; n = 3
Experimental: (§4) Next, kakeromamide A or its respective derivative was exposed at three concentrations (2.5, 5, and 10 μM) during differentiation of neural stem cells (NSCs). The effects of kakeromamide A and its analogs on the neural differentiation into neurons or astrocytes were evaluated by using NeuO (Er et al., [2015]) a fluorescent probe which could selectively stain neurons, or immunostaining of an astrocyte marker GFAP (glial fibrillary acidic protein), respectively. The nuclei were stained by using Hoechst 33342 followed by the microscopic analysis. Their activities were determined by calculating a ratio NeuO or GFAP positive cells to whole cells and comparing with that of the control. […] Furthermore, the astrocytic or neuronal differentiation were promoted or inhibited, respectively, by treatment with four analogs of compound 1.
(§5) V. Procedures for Biological Tests:
(§6) Induction of neural stem cells in vitro: Neural stem cells (NSCs) were obtained following the procedure (Iwata, et al., 2016; Nakayama, et al., 2006) with modification. Embryoid bodies (EBs) were induced by hanging drop method for 72 hours using 7,500 cells per 20 µL of ESCs culturing medium without LIF. Then the EBs were cultured in non-adhesive bacterial dishes in Neuron Culture Medium (Sumitomo Bakelite, Tokyo, Japan) supplemented with 20 ng/mL rhEGF (R&D Systems, Minneapolis, MN, USA) and 20 ng/mL rhFGF-2 (R&D Systems). […]

neural stem cells (NSCs) [3] = assay: NSC differentiation assay, neuronal differentiation (NeuO staining); format: cell-based; conditions: 2.5, 5 and 10 μM, 72 hours in differentiation medium, Hoechst 33342 nuclei, n = 3
Experimental: as §4, §5, §6

astrocytes = assay: Cell cytotoxicity toward astrocytes (Hoechst 33342 staining); format: cell-based; conditions: 2.5, 5 and 10 μM, n = 3
Text: as §1, §2

## Kakeromamide A
neurons
  cytotoxicity toward neurons (cell number by Hoechst 33342 positive cells vs control): No significant cytotoxicity
Hela cells
  IC50: 10 µM
Neural stem cells (NSCs) [1]
  concentration inducing neural stem cells differentiation into astrocytes: 2.5 to 10 µM
Neural stem cells (NSCs) [2]
  astrocytic differentiation of NSCs (ratio of GFAP positive cells to whole cells vs control): promoting differentiation of NSCs into astrocytes
Neural stem cells (NSCs) [3]
  neuronal differentiation of NSCs (ratio of NeuO positive cells to whole cells vs control): inhibiting neuronal differentiation of NSCs
astrocytes
  cytotoxicity toward astrocytes (cell number by Hoechst 33342 positive cells vs control): No significant cytotoxicity
